The text below walks through data of publication PMC6271079, “Amino Acid Derivatives of Ligustrazine-Oleanolic Acid as New Cytotoxic Agents” (Molecules, 2014).

A value given as a limit tells only on which side of the number the result lay.

One series deals with HepG2. Description: MTT cytotoxicity assay, HepG2. To be noted: HepG2, 72 h, human hepatoma cells. The class given is cell-based. On the procedure: (§1) The cytotoxicity of these compounds was tested on five cells lines by the standard MTT assay. The human cancer cells lines (HepG2, HT-29, Hela, BGC-823) and MDCK cells were provided by the Chinese Academy of Medical Sciences Peking Union Medical College. The tumor cells were cultured in RPMI 1640 medium supplemented with 10% (v/v) fetal bovine serum and 1% (v/v) penicillin-streptomycin (Thermo Technologies, New York, NY, USA) at 37 °C in a humidified atmosphere with 5% CO2. The growing tumor cells at a density 3 × 10^3 cells/mL were exposed to various concentrations of the tested drugs and incubated in a 96-well microtiter plate for 72 h (37 °C, 5% CO2). After MTT solution (20 μL, 5 mg/mL) was added to each well, the plate was incubated for a further 4 h. Then the media was removed. Formazan crystals were dissolved with DMSO (150 μL). After mixing well, the absorbance was quantified at 490 nm with a BIORAD 550 spectrophotometer (Bio-rad Life Science Development Ltd., Beijing, China). Wells containing no drugs were used to be blanks. The IC50 values were defined as the concentration of compounds that produced a 50% reduction of surviving cells and calculated using the Logit-method. Tumor cell growth inhibitory rate was calculated in the following Equation (1): % inhibition = (1 − Sample group OD/Control group OD) × 100%(1)

In a further series the test system is HT-29. Description: MTT cytotoxicity assay, HT-29. Format: cell-based. To be noted: HT-29, 72 h, human colorectal cancer cells. The procedure: as §1
The next series relates to Hela. Description: MTT cytotoxicity assay, Hela. To be noted: Homo sapiens, 72 h, cervical cancer cells. Format: cell-based, human. On the procedure:
as §1

A further series relates to BGC-823. As to the kind of experiment: MTT cytotoxicity assay, BGC-823. Format: cell-based. As to conditions: BGC-823, 72 h, human gastric cancer cells. The procedure:
as §1
In general terms: Tetrazolium assays rely on reduction of a dye to a coloured formazan, in cell work by metabolically active cells.

Series [1] deals with MDCK cells. Description: MTT toxicity (nephrotoxicity) evaluation, MDCK. Format: cell-based. To be noted: Canis lupus familiaris, MDCK, 72 h, Madin-Darby canine kidney cells. The procedure: as §1
The nature of series [2]: logP by shake flask-ultraviolet spectrophotometry. Format: physicochemical. As to conditions: n-caprylic alcohol-water (octanol/water); pH 6.8, n-caprylic alcohol-water, shake flask-UV; read-out: logP (octanol-water partition coefficient). The source says:
Lipophilicity (ClogP) is used in rational drug design as a key factor related to the cell transmembrane transport or other biological processes. ClogP values can either be calculated experimentally or predicted by means of commercially available programs. In this work, ClogP values of the TOA-amino acid derivatives were predicted using Sybyl-X 2.0 (Tripos, Certara Inc., St. Louis, MO, USA). […] To determine the octanol-water partition coefficient (logP), a shake flask-ultraviolet spectrophotometry method was used to determine the concentration of 6a and TOA in the water phase and organic phase at pH 6.8 with n-caprylic alcohol-water as the simulation system. […] However, the better activity connected with the increases of these amino acid conjugates’ solubility is worthy of further study.

For series [3], the system named is HepG2 cells. As to the kind of experiment: Giemsa staining, HepG2 morphology. As to conditions: 1, 2 and 4 μM, 72 h, 400×. The class given is cell-based, human. The procedure:
(§2) HepG2 cells in logarithmic growth phase were cultured in 6-well plates for 24 h at 37 °C in a humidified atmosphere with 5% CO2. And then each group was treated with different concentrations of compound 6a for 72 h. The cell culture medium was discarded. And the cells were washed twice with PBS, kept in PBS/ethanol (1:1) for 2 min, fixated in ethanol for 10 min. After removing the ethanol, the cells were stained with Giemsa stain for 2 min and observed under inverted phase-contrast microscope at a magnification of 400×. MDCK cells in logarithmic growth phase were cultured in 6-well plates for 24 h at 37 °C in a humidified atmosphere with 5% CO2. The cells were treated with 2 μM of compound 6a and CDDP for 72 h. The same operation was experimented as described above, and the cells were observed under inverted phase-contrast microscope at a magnification of 200×.

Series [4] concerns MDCK cells. Description: Giemsa staining, MDCK morphology. Format: cell-based, canine. To be noted: 2 μM, 72 h, 200×. The procedure:
as §2

The subject of series [5] is HepG2 cells. As to the kind of experiment: DAPI staining, HepG2 nuclear changes. The class given is cell-based, human. As to conditions: 1, 2 and 4 μM, 72 h, 400×. The procedure:
HepG2 cells in logarithmic growth phase were allowed to grow in 6-well plates for 24 h at 37 °C in a humidified atmosphere with 5% CO2. And each group was treated with different concentrations of compound 6a for 72 h. Cell culture medium was discarded and the cells were washed twice with PBS. The cells were fixed with 4% paraformaldehyde (pH 7.4) for 15 min and then washed twice with PBS. With an excitation wavelength of 470 nm, 4',6-diamidino-2-phenylindole (DAPI, 600 nM, Molecular Probes/Invitrogen Life Technologies, Carlsbad, CA, USA) staining was then performed for 2 min and nuclear fragments were observed using inverted phase-contrast microscope at a magnification of 400×.

A further series has as its system mice. To be noted: via gavage in mice; earlier studies, no reference given; cited from earlier work.
A further series relates to NF-κB/p65 and COX-2. Set-up: method as in PMID 24147349. To be noted: S180 mice; cited from earlier work.

A word on the IC50: it is the concentration needed to halve the response being measured. Low readings indicate higher potency, high ones lower potency. The logP is a log measure of how a compound divides between an organic and an aqueous phase. For the compound `Cc1nc(C)c(COC(=O)[C@]23CCC(C)(C)CC2C2=CCC4[C@@]5(C)CC[C@H](OC(=O)CN)C(C)(C)C5CC[C@@]4(C)[C@]2(C)CC3)nc1C` (stereo partly drawn) [Compound 6a, 3β-Glycine ester olean-12-en-28-oic acid-3,5,6-trimethylpyrazin-2-methyl ester], the IC50 was 2 µM with HepG2; 2.5 µM with HT-29; 3.26 µM with Hela; 3.06 µM with BGC-823; 4.88 µM in the series on MDCK cells [1]. In series [2], the logP came out at 4.3. Moreover, the “Morphological changes of HepG2 cells (Giemsa staining)” value with HepG2 cells [3] is “loss of intercellular contacts, lysis of nuclei, increased cell debris and membrane damage”. For the same compound, the “Morphological changes of MDCK cells (Giemsa staining)” value with MDCK cells [4] is recorded as “no significant morphological changes”. In addition, the “Nuclear changes of HepG2 cells (DAPI staining)” value in the series with HepG2 cells [5] was “condensed chromatin, nuclear fragmentation and weak fluorescence”.

On to `Cc1nc(C)c(COC(=O)[C@]23CCC(C)(C)CC2C2=CCC4[C@@]5(C)CC[C@H](O)C(C)(C)C5CC[C@@]4(C)[C@]2(C)CC3)nc1C` (stereo partly drawn) [TOA, 3β-Hydroxyolea-12-en-28-oic acid-3,5,6-trimethylpyrazine-2-methyl Ester], for which the IC50 with HepG2 is 21.4 µM; in the series with HT-29, greater than 25 µM; in the series with Hela, 8.68 µM; in the series with BGC-823, greater than 25 µM; with MDCK cells [1], greater than 25 µM. Besides, the lipophilicity (logP) in series [2] worked out at 6.11. Further, the LD50 result with mice was “exceeded 6.0 g/kg”. In the series with NF-κB/p65 and COX-2, the “Expression of NF-κB/p65 and COX-2” value is on record as “prevented the expression”.
